What all share (experiment): AK assay 384-well format, Prestwick library screening
For one test, the system named is E. cloacae. The format is cell-based, Enterobacter cloacae. Conditions: Enterobacter cloacae, 3 h.
A further test has as its system K. pneumoniae. In kind it is cell-based, Klebsiella pneumoniae. The following applies: Klebsiella pneumoniae, 3 h.
For the next test, the system named is P. aeruginosa. The format is cell-based, Pseudomonas aeruginosa. The following applies: Pseudomonas aeruginosa, 3 h.
The next test deals with E. coli. In kind it is cell-based, Escherichia coli. The following applies: Escherichia coli, 3 h.
Test [1] concerns A. baumannii strain 98-37-09. In kind it is cell-based, Acinetobacter baumannii. The following applies: Acinetobacter baumannii, 983709, 3 h.
The next test deals with E. faecium. The format is cell-based, Enterococcus faecium. Conditions: Enterococcus faecium, 3 h.
In test [2] the test system is S. aureus strain USA300-0114. In kind it is cell-based, Staphylococcus aureus. Conditions: Staphylococcus aureus, USA300, 3 h.
[3] abbreviates: 50 μM final drug concentration, cutoff for positive-scoring molecules 3-fold increase, read-out: AK-based Prestwick Library Screening Results, E. cloacae (fold increase in extracellular AK activity).
Setting [4] is: 50 μM final drug concentration, cutoff for positive-scoring molecules 3-fold increase, read-out: AK-based Prestwick Library Screening Results, K. pneumoniae (fold increase in extracellular AK activity).
[5] abbreviates: 50 μM final drug concentration, cutoff for positive-scoring molecules 3-fold increase, read-out: AK-based Prestwick Library Screening Results, P. aeruginosa (fold increase in extracellular AK activity).
[6] abbreviates: 50 μM final drug concentration, cutoff for positive-scoring molecules 3-fold increase, read-out: AK-based Prestwick Library Screening Results, E. coli (fold increase in extracellular AK activity).
The mark [7] stands for this setting: 50 μM final drug concentration, cutoff for positive-scoring molecules 3-fold increase, read-out: AK-based Prestwick Library Screening Results, A. baumannii (fold increase in extracellular AK activity).
Where [8] appears, read: 50 μM final drug concentration, cutoff for positive-scoring molecules 3-fold increase, read-out: AK-based Prestwick Library Screening Results, E. faecium (fold increase in extracellular AK activity).
The mark [9] stands for this setting: planktonic E. cloacae, 50 μM final drug concentration, cutoff for positive-scoring molecules 3-fold increase, read-out: AK-based Prestwick Library Screening Results, E. cloacae (increase in extracellular AK activity).
The mark [10] stands for this setting: planktonic K. pneumoniae, 50 μM final drug concentration, cutoff for positive-scoring molecules 3-fold increase, read-out: AK-based Prestwick Library Screening Results, K. pneumoniae (increase in extracellular AK activity).
The mark [11] stands for this setting: planktonic P. aeruginosa, 50 μM final drug concentration, cutoff for positive-scoring molecules 3-fold increase, read-out: AK-based Prestwick Library Screening Results, P. aeruginosa (increase in extracellular AK activity).
Where [12] appears, read: planktonic A. baumannii, 50 μM final drug concentration, cutoff for positive-scoring molecules 3-fold increase, read-out: AK-based Prestwick Library Screening Results, A. baumannii (increase in extracellular AK activity).
[13] abbreviates: planktonic E. faecium, 50 μM final drug concentration, cutoff for positive-scoring molecules 3-fold increase, read-out: AK-based Prestwick Library Screening Results, E. faecium (increase in extracellular AK activity).

Where a name gives a salt, the structure may show the parent alone. Read-outs that look alike come from different tables or passages of the source.

As to `CCCCC(CC)CNC(=N)NC(=N)NCCCCCCNC(=N)NC(=N)NCC(CC)CCCC` (centres unmarked) [Alexidine dihydrochloride], the fold induction at 50 µM in the test on E. cloacae (setting [3]) was 1.5; in the test on K. pneumoniae (setting [4]), 23.4; in the test with P. aeruginosa (setting [5]) it was 19.2; in the test with E. coli (setting [6]), 43.3; in test [1] (setting [7]), 12.3; with E. faecium (setting [8]), 7.4.
Regarding `O=c1cc(-c2ccc(O)cc2)oc2cc(O)cc(O)c12` [Apigenin], the fold induction at 50 µM in the test on E. cloacae (setting [9]) was 0.5; in the test with K. pneumoniae (setting [10]) it was 0.2; in the test with P. aeruginosa (setting [11]), 0.2; with E. coli (planktonic E. coli, 50 μM final drug concentration, cutoff for positive-scoring molecules 3-fold increase, read-out: AK-based Prestwick Library Screening Results, E. coli (increase in extracellular AK activity)) it was 0.2; in test [1] (setting [12]) it was 0.2; with E. faecium (setting [13]) it was 0.3.
For `O=C(O)CCCC[C@@H]1SC[C@@H]2NC(=O)N[C@@H]21` [Biotin], the fold induction at 50 µM in the test on E. cloacae (setting [9]) came out at 0.8; with K. pneumoniae (setting [10]), 0.6; in the test with P. aeruginosa (setting [11]), 0.7; in test [2] (planktonic S. aureus, 50 μM final drug concentration, cutoff for positive-scoring molecules 3-fold increase, read-out: AK-based Prestwick Library Screening Results, S. aureus (increase in extracellular AK activity)) it was 1.4; in test [1] (setting [12]), 0.8; with E. faecium (setting [13]), 0.9.
For `[H]/N=C(\N/C(=N/[H])NCCCCCCNC(=N)NC(=N)Nc1ccc(Cl)cc1)Nc1ccc(Cl)cc1` [Chlorhexidine, chlorhexidine, reference compound], the fold induction at 50 µM was found to be 1.8 in the test on E. cloacae (planktonic E. cloacae, 50 μM final drug concentration, 384-well, cutoff for positive-scoring molecules 3-fold increase, read-out: AK-based Prestwick Library Screening Results: E. cloacae (increase in extracellular AK activity)); 18.8 with K. pneumoniae (planktonic K. pneumoniae, 50 μM final drug concentration, 384-well, cutoff for positive-scoring molecules 3-fold increase, read-out: AK-based Prestwick Library Screening Results: K. pneumoniae (increase in extracellular AK activity)); 23.8 in the test with P. aeruginosa (planktonic P. aeruginosa, 50 μM final drug concentration, 384-well, cutoff for positive-scoring molecules 3-fold increase, read-out: AK-based Prestwick Library Screening Results: P. aeruginosa (increase in extracellular AK activity)); 50.1 with E. coli (planktonic E. coli, 50 μM final drug concentration, 384-well, cutoff for positive-scoring molecules 3-fold increase, read-out: AK-based Prestwick Library Screening Results: E. coli (increase in extracellular AK activity)); 12.3 in test [1] (planktonic A. baumannii, 50 μM final drug concentration, 384-well, cutoff for positive-scoring molecules 3-fold increase, read-out: AK-based Prestwick Library Screening Results: A. baumannii (increase in extracellular AK activity)); 4 in the test on E. faecium (planktonic E. faecium, 50 μM final drug concentration, 384-well, cutoff for positive-scoring molecules 3-fold increase, read-out: AK-based Prestwick Library Screening Results: E. faecium (increase in extracellular AK activity)).
For `CS(=O)(=O)c1ccc([C@@H](O)[C@@H](CF)NC(=O)C(Cl)Cl)cc1` [Florfenicol], the fold induction at 50 µM in the test with E. cloacae (setting [3]) came out at 1.4; in the test on K. pneumoniae (setting [4]), 0.3; in the test with P. aeruginosa (setting [5]) it was 1.4; in the test with E. coli (50 μM final drug concentration, […], read-out: AK-based Prestwick Library Screening Results, E. coli (fold increase in extracellular AK activity)), 1.2; in test [1] (setting [7]), 1.2; in the test with E. faecium (setting [8]), 1.
Consider `NNc1nncc2ccccc12` [Hydralazine hydrochloride], for which the fold induction at 50 µM in the test on E. cloacae (50 μM final drug concentration, 384-well format, cutoff for positive-scoring molecules 3-fold increase, read-out: AK-based Prestwick Library Screening Results, E. cloacae (increase in extracellular AK activity)) was found to be 0.3; in test [2] (50 μM final drug concentration, 384-well format, cutoff for positive-scoring molecules 3-fold increase, read-out: AK-based Prestwick Library Screening Results, S. aureus (increase in extracellular AK activity)) it was 0.2; in test [1] (50 μM final drug concentration, 384-well format, cutoff for positive-scoring molecules 3-fold increase, read-out: AK-based Prestwick Library Screening Results, A. baumannii (increase in extracellular AK activity)), 0.1; in the test with E. faecium (50 μM final drug concentration, 384-well format, cutoff for positive-scoring molecules 3-fold increase, read-out: AK-based Prestwick Library Screening Results, E. faecium (increase in extracellular AK activity)) it was 0.3.
For `COc1cc(NC(C)CCCN)c2ncccc2c1` (centres unmarked) [Primaquine diphosphate], the fold induction at 50 µM with E. cloacae (50 μM final drug concentration, planktonic, cutoff for positive 3-fold increase, read-out: AK-based Prestwick Library Screening Results, E. cloacae (fold increase in extracellular AK activity)) was found to be 1.4; in the test with K. pneumoniae (50 μM final drug concentration, planktonic, cutoff for positive 3-fold increase, read-out: AK-based Prestwick Library Screening Results, K. pneumoniae (fold increase in extracellular AK activity)), 1; in the test with P. aeruginosa (50 μM final drug concentration, planktonic, cutoff for positive 3-fold increase, read-out: AK-based Prestwick Library Screening Results, P. aeruginosa (fold increase in extracellular AK activity)) it was 1; in test [2] (50 μM final drug concentration, planktonic, cutoff for positive 3-fold increase, read-out: AK-based Prestwick Library Screening Results, S. aureus (fold increase in extracellular AK activity)) it was 2.1; in test [1] (50 μM final drug concentration, planktonic, cutoff for positive 3-fold increase, read-out: AK-based Prestwick Library Screening Results, A. baumannii (fold increase in extracellular AK activity)), 1.1; with E. faecium (50 μM final drug concentration, planktonic, cutoff for positive 3-fold increase, read-out: AK-based Prestwick Library Screening Results, E. faecium (fold increase in extracellular AK activity)), 0.9.
For the compound `Oc1ccc(C=Cc2cc(O)cc(O)c2)cc1` [Resveratrol], the fold induction at 50 µM in the test with E. cloacae (setting [9]) was 0.1.
In the case of `CCCCCCCCCCCCCCCC[N+](C)(C)CCN(Cc1ccc(OC)cc1)c1ncccn1` [Thonzonium bromide], the fold induction at 50 µM in the test on E. cloacae (setting [3]) worked out at 1.8; in the test with K. pneumoniae (setting [4]) it was 4.7; in the test with P. aeruginosa (setting [5]), 1.5; in the test on E. coli (setting [6]) it was 3.2; in test [1] (setting [7]) it was 5.6; in the test on E. faecium (setting [8]) it was 7.5.
`CN[C@H](CC(C)C)C(=O)N[C@H]1C(=O)N[C@@H](CC(N)=O)C(=O)N[C@H]2C(=O)N[C@H]3C(=O)N[C@H](C(=O)N[C@H](C(=O)O)c4cc(O)cc(O)c4-c4cc3ccc4O)[C@H](O)c3ccc(c(Cl)c3)Oc3cc2cc(c3O[C@@H]2O[C@H](CO)[C@@H](O)[C@H](O)[C@H]2O[C@H]2C[C@](C)(N)[C@H](O)[C@H](C)O2)Oc2ccc(cc2Cl)[C@H]1O` [Vancomycin hydrochloride]: the fold induction at 50 µM in the test with E. cloacae (read-out: AK-based Prestwick Library Screening Results, E. cloacae (increase in extracellular AK activity)) is 0.9; with K. pneumoniae (read-out: AK-based Prestwick Library Screening Results, K. pneumoniae (increase in extracellular AK activity)), 0.8; in the test on P. aeruginosa (read-out: AK-based Prestwick Library Screening Results, P. aeruginosa (increase in extracellular AK activity)) it was 0.9; with E. coli (read-out: AK-based Prestwick Library Screening Results, E. coli (increase in extracellular AK activity)) it was 1.2; in test [1] (read-out: AK-based Prestwick Library Screening Results, A. baumannii (increase in extracellular AK activity)), 1.1; in the test on E. faecium (read-out: AK-based Prestwick Library Screening Results, E. faecium (increase in extracellular AK activity)), 1.5.
Consider `O=C(NCCNCC(O)COc1ccc(O)cc1)N1CCOCC1` (centres unmarked) [Xamoterol hemifumarate], for which the fold induction at 50 µM in the test with E. cloacae (read-out: AK-based Prestwick Library Screening Results, E. cloacae (fold increase in extracellular AK activity)) is 1.8; in the test with K. pneumoniae (read-out: AK-based Prestwick Library Screening Results, K. pneumoniae (fold increase in extracellular AK activity)), 0.8; in the test on P. aeruginosa (read-out: AK-based Prestwick Library Screening Results, P. aeruginosa (fold increase in extracellular AK activity)), 1.2; in test [2] (read-out: AK-based Prestwick Library Screening Results, S. aureus (fold increase in extracellular AK activity)) it was 1.1; in test [1] (read-out: AK-based Prestwick Library Screening Results, A. baumannii (fold increase in extracellular AK activity)), 1; in the test with E. faecium (read-out: AK-based Prestwick Library Screening Results, E. faecium (fold increase in extracellular AK activity)) it was 1.

The record behind these values is patent US10004701B2, “Methods and compositions for treating infection” (UNIVERSITY OF ROCHESTER, priority 2012, dated 2018).
